Each block holds one molecule with its values, some of them ahead of it.
Columns and labels:
HCT-116 and SW480 cells = experiment: WB of EMT and apoptosis markers with ROS scavengers; format: cell-based, Human; conditions: 20 μM SFI003 with 5 mM NAC or 100 μM Trolox, 72 h
Protocol: After cell lysates were prepared, protein concentrations were determined by a BCA assay (TaKaRa, Kusatsu, Japan). Equal amounts of protein were separated by SDS–PAGE and transferred to polyvinylidene difluoride membranes. After normalization, the blots were probed with appropriate antibodies, as described previously.

ROS = experiment: Detection of ROS (DCFH-DA) in HCT-116 and SW480 cells; format: cell-based, Human; conditions: 20 μM SFI003 with 5 mM NAC or 100 μM Trolox, 72 h
Protocol: Following treatment with SFI003 or siRNA, the cells were washed with PBS and incubated with DCFH-DA for 20 min at 37 °C. After washing three times, the cells were collected and measured at 488 nm excitation and 525 nm emission by a microplate reader (Tecan, Switzerland) according to the manufacturer’s instructions (Beyotime, Shanghai, China). The protein concentrations were determined by using a BCA assay (TaKaRa, Kusatsu, Japan).

HCT-116 xenografts = HCT-116 xenografts in SCID mice; format: in vivo; conditions: HCT-116 xenografts, 100 mg/kg orally, two weeks
Protocol: To explore the effect of SFI003 on the growth of CRC, approximately 3 × 10^6 HCT-116 cells or 8 × 10^6 SW480 cells were collected and mixed with Matrigel (Corning, NY, USA) at a 1:1 ratio by volume and then injected into the lower back region of mice. When tumors were palpable, mice were randomly divided into four groups. One group received vehicle as a control, while the other three groups were orally administered SFI003 at a dosage of 100 or 200 mg/kg or capecitabine at a dosage of 100 mg/kg for two continuous weeks. The tumor sizes and mouse body weights were monitored every other day. At the end of the experiment, tumors and blood samples were collected for further studies. The tumor size was evaluated according to Eq.: tumor size (mm^3) = (length × width^2) × 0.5.

SRSF3 = biological target: T1, SRSF3 (Homo sapiens, UniProt P84103); experiment: Biological experimental assays of screened compounds against SRSF3; conditions: screening hit among 22 selected compounds
T1 sequence (P84103 1-164): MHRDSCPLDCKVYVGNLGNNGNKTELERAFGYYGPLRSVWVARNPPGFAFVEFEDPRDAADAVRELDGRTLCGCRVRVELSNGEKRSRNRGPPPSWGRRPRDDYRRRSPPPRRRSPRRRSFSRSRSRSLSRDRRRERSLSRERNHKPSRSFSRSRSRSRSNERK

SW480 cells = experiment: MTT assay in SW480 cells; format: cell-based, Human; conditions: Homo sapiens; SW480 cells, 72 h
Protocol: (§1) Human CRC cell lines were purchased from the American Type Culture Collection (VA, USA). HCT-116 cells were cultured in DMEM (HyClone, Utah, USA) containing 10% fetal bovine serum (FBS; Gibco, NY, USA). SW480 cells were cultured in RPMI 1640 medium (HyClone, Utah, USA) containing 10% FBS. All cells were cultured in an incubator (Thermo, CA, USA) at a constant temperature of 37 °C and 5% CO2. N-Acetylcysteine (NAC), Trolox, MLN4924, 5-Fu, and capecitabine were purchased from MedChemExpress LLC (Shanghai, China). MG132 was purchased from Santa Cruz Biotech (CA, USA). Chloroquine (CHQ) was purchased from Sigma (CA, USA). Rapamycin was purchased from Beyotime (Shanghai, China). Primary antibodies against SRSF3 and E-Cadherin were purchased from Abcam (Cambridge, UK). Primary antibodies against N-Cadherin, Caspase 3, DHCR24, CAT, Akt and phospho-Akt (Ser473) were purchased from Cell Signaling Technology (MA, USA). Primary antibodies against β-actin, mTOR, and phospho-mTOR ([…]) were purchased from Beyotime (Shanghai, China). Primary antibody against Vimentin was purchased from Proteintech (Wuhan, China). Primary antibody against Bcl-2 was purchased from Santa Cruz Biotech (CA, USA). Primary antibody against Flag was purchased from MBL Beijing Biotech (Beijing, China). CRC cells were transfected with 100 nM siRNA or treated with various doses of SFI003 for 24 h, 48 h, or 72 h before being subjected to MTT assay as described previously.

HCT-116 cells = experiment: MTT assay in HCT-116 cells; format: cell-based, Human; conditions: Homo sapiens; HCT-116 cells, 72 h
Protocol: as §1

SMILES: Cc1c(C)c2c(c(C)c1O)CCC(C)(C(=O)O)O2 (stereo not drawn) [Trolox]
effect on SFI003-induced apoptosis and migration disability (HCT-116 and SW480 cells): reversed | effect on SFI003-induced ROS (ROS): significantly reversed

SMILES: CCCCCOC(=O)Nc1nc(=O)n([C@@H]2O[C@H](C)[C@@H](O)[C@H]2O)cc1F [capecitabine, reference compound]
number of tumors that disappeared (HCT-116 xenografts): one

inhibitory activity against SRSF3 (SRSF3): satisfactory inhibitory activity
SMILES: C/C(=N\Nc1nc(-c2ccc(O)cc2)cs1)C1=CSCN1 [compound 6]

IC50 (SW480 cells): 16.8 µM | IC50 (HCT-116 cells): 33.2 µM
SMILES: CO[C@H]1C[C@@H]2CC[C@@H](C)[C@@](O)(O2)C(=O)C(=O)N2CCCC[C@H]2C(=O)O[C@H]([C@H](C)C[C@@H]2CC[C@@H](O)[C@H](OC)C2)CC(=O)[C@H](C)/C=C(\C)[C@@H](O)[C@@H](OC)C(=O)[C@H](C)C[C@H](C)/C=C/C=C/C=C/1C [rapamycin, reference compound]

From PMC9061822, “A novel SRSF3 inhibitor, SFI003, exerts anticancer activity against colorectal cancer by modulating the SRSF3/DHCR24/ROS axis” (Cell Death Discovery, 2022)
